Reference: US20250213478A1, “CATIONIC LIPID HAVING DISULFIDE BOND, LIPID MEMBRANE STRUCTURE INCLUDING SAME, NUCLEIC ACID INTRODUCTION AGENT AND PHARMACEUTICAL COMPOSITION CONTAINING ANY ONE OF SAME, METHOD FOR INTRODUCING NUCLEIC ACID INTO CELL OR TARGET CELL, AND METHOD FOR PRODUCING CELLULAR PHARMACEUTICAL” (NOF Corporation, priority 2022, published 2025)

Legend:
[1] = Measurement of Liposomal pKa of LNP (TNS fluorescence); format: physicochemical; details: LNP without nucleic acid, cationic lipid:DOPC:Chol=52.5:7.5:40 + about 1.5 mol DMG-PEG2k; pH at which relative TNS fluorescence intensity was 50%
Description: Lipid nanoparticles (LNP) without containing nucleic acid were used for the evaluation of Liposomal pKa.
(§1) A 10 mM ethanol solution of cationic lipid, a 5 mM ethanol solution of DOPC, and a 10 mM ethanol solution of Chol were mixed at desired ratio (cationic lipid:DOPC:Chol=52.5:7.5:40 (molar ratio)) in an Eppendorf tube to achieve the total lipid amount of 720 nmol. To the obtained mixture was further added DMG-PEG2k (2 mM ethanol solution) in an amount of about 1.5 mol with respect to the total amount 100 mol of cationic lipid, DOPC, and Chol, and then ethanol was added to prepare an ethanol solution of the lipid (total amount: 360 μL).
(§2) An acidic malic acid buffer (20 mM, pH 3.0) (1080 μL) containing NaCl at a final concentration of 30 mM and an ethanol solution (360 μL) of lipid were each weighed in a syringe. Using an ultra high-speed nanomedicament producing apparatus NanoAssmblr (manufactured by Precision NanoSystems), LNP was prepared under the conditions of addition rate of acidic buffer solution: 3 mL/min, addition rate of ethanol solution of lipid: 1 mL/min, and syringe holder temperature: 25° C., and collected in a 15 mL tube. MES buffer (pH 6.5) (3000 μL) was added to the 15 mL tube, the obtained mixture was transferred to Amicon Ultra 4, and ultrafiltration was performed under centrifugation conditions (25° C., 1000 g, 6 min) to concentrate the mixture to about 100 μL. The obtained concentrate was diluted with PBS to 4 mL, and the mixture was concentrated again under centrifugation conditions (25° C., 1000 g, 6 min), and this operation was performed twice. The obtained concentrate was diluted with PBS to a lipid concentration of 0.5 mM to give a dispersion containing LNP.
20 mM Citrate buffer, sodium phosphate buffer, and tris HCl buffer, each containing NaCl at a final concentration of 150 mM and adjusted to various pHs within the range of pH 3.0 to 10.0, were prepared. TNS (manufactured by Sigma) was diluted with ultrapure water to 0.6 mM. TNS solution (2 μL), dispersions (12 μL) containing LNP prepared in [Experimental Example 1], 1., and buffers adjusted to various pHs (186 μL) were added to a black 96 well plate. The plate was protected from light and shaken at 400 rpm for 10 min. The fluorescence intensity (excitation: 321 nm/emission: 447 nm) was measured using a plate reader (manufactured by TECAN). The relative fluorescence intensity was calculated as a percentage, with the maximum value of the fluorescence intensity in each LNP being 100% and the minimum value being 0%. Furthermore, the pH at which the relative fluorescence intensity was 50% was taken as Liposomal pKa. In Comparative Example, the cationic lipid described in the aforementioned Table 3 were used.

[2] = Particle size, PdI and zeta potential of mRNA-encapsulating LNPs (dynamic light scattering); format: physicochemical; details: mRNA-encapsulating LNP, cationic lipid:DOPC:Chol=55:5:40 + about 1 mol DMG-PEG2k; for PdI / particle size: dynamic light scattering; for zeta potential: physiological pH
Description: as §1, with “lipid:DOPC:Chol=55:5:40” for “lipid:DOPC:Chol=52.5:7.5:40”, “1” for “1.5”
An acidic buffer solution (total amount: 1080 μL) of nucleic acid was prepared by weighing 7.2 μg of mRNA solution (0.6 mg/mL) in a 5 mL tube and adding acidic malate buffer (20 mM, pH 3.0) containing NaCl at a final concentration of 30 mM.
as §2, with “buffer solution of nucleic” for “malic”, “acid” for “acid buffer (20 mM, pH 3.0) (1080 μL) containing NaCl at a final concentration of 30 mM”, “solution” for “solution (360 μL)”, “solution of nucleic acid:” for “solution:”, “2” for “0.5”
The particle size, PdI (Polydispersity Index), and zeta potential of the mRNA-encapsulating LNP prepared by the method of the above-mentioned 1 were measured by a dynamic light scattering method. In Comparative Example, the cationic lipid described in the aforementioned Table 3 were used.

[3] = test system: HeLa cells; assay: Evaluation of in vitro gene expression in HeLa cell (luciferase mRNA-encapsulating LNP); format: cell-based, human; details: for cumulative luciferase luminescence intensity over 24 hr: luciferase mRNA 0.4 μg per dish, LNP cationic lipid:DOPC:Chol:DMG-PEG2k=55:5:40:1; for gene expression activity compared to Comparative Example: result in words
Description: (§3) LNP encapsulating mRNA that expresses luciferase (cationic lipid:DOPC:Chol:DMG-PEG2k=55:5:40:1 (molar ratio)) was prepared by the method described in [Experimental Example 2], 1.
HeLa cells, which are human cervical cancer cells, were seeded in a 3.5 cm dish at 5.0×10^4 cells/2 mL/Dish 24 hours before transfection. After 24 hours, the medium was exchanged with a culture medium (D-MEM) containing 0.1 mM D-luciferin. Prepared mRNA-encapsulating LNP was diluted with PBS such that the concentration of mRNA was about 8 μg/mL. The diluted mRNA-encapsulating LNP solution (about 50 μL, mRNA: 0.4 μg) was added to the 3.5 cm dish and set in an incubator luminometer KronosDio. The luminescence intensity of luciferase was measured for 2 min every one hour. The cumulative luciferase luminescence intensity for 24 hr was calculated from the obtained time change of expression. For example, “1.0E+06” means “1.0×10^6”. In Comparative Example, the cationic lipid described in the aforementioned Table 3 were used.

[4] = test system: BALB/c mouse; assay: Evaluation of in vivo gene expression (luciferase mRNA-encapsulating LNP, IVIS of isolated organs)
Description: as §3
The prepared each mRNA-encapsulating LNP dispersion was administered from the tail vein of BALB/c mouse (male, 5-week-old). The dose of mRNA was set to 0.05 mg per 1 kg body weight of the mouse, and the dose of the mRNA-encapsulating LNP dispersion was set to 10 μL per 1 g body weight of the mouse. After 4.5 hr from the administration of the mRNA-encapsulating LNP dispersion, a PBS solution of D-luciferin potassium was administered into the abdominal cavity of the mouse. The dose of D-luciferin potassium was set to 3 mg per mouse, and the dose of the PBS solution of D-luciferin potassium was set to 200 μL per mouse. After 15 min from the administration of the PBS solution of D-luciferin potassium, the mouse was euthanized, and the liver, spleen, kidney, heart, and lung were isolated. The luminescence in each organ was quantified using an in vivo imaging system (IVIS) with an exposure of 10 sec. The amount of luminescence in each organ was quantified by image analysis using Live Imaging software attached to IVIS. The amount of luminescence (photons/sec) was calculated from the acquired image and used as an index of gene expression activity. “E+0a” (a: integer) indicated in Table 7 and Table 8 means “10^a”. For example, “1.0E+02” means “1.0×10^2”. In Comparative Example, the cationic lipid described in the aforementioned Table 3 were used.

Row | Compound | pKa [1] | PdI [2] | particle size [2] [nm] | zeta potential [2] [mV] | cumulative luciferase luminescence intensity over 24 hr [3] [RLU] | also measured
1 | CCCCCCCCC(CCCCCC)C(=O)Oc1ccc(CC(=O)OCCSSCCOC(=O)CN(C)C)cc1 (stereo not drawn) [Example 1] | 5.7 | 0.072 | 82 | −3.4 | – | –
2 | CCCCCCCCCCC(CCCCCCCCCC)C(=O)Oc1ccc(CC(=O)OCCSSCCOC(=O)CN(C)C)cc1 [Example 2] | 5.7 | 0.072 | 84 | −2.9 | – | –
3 | CCCCCCCCCCCCCCC(CCCCCCCCCCCCCC)C(=O)Oc1ccc(CC(=O)OCCSSCCOC(=O)CN(C)C)cc1 [Example 3] | – | 0.078 | 90 | −3.0 | – | –
4 | CCCCCCCCC(CCCCCC)C(=O)Oc1ccc(CC(=O)OCCSSCCOC(=O)CCCN(C)C)cc1 (stereo not drawn) [Example 4] | 7.8 | 0.116 | 64 | 12.2 | 3.09E+05 | –
5 | CCCCCCCC/C=C\CCCCCCCC(=O)Oc1ccc(CC(=O)OCCSSCCOC(=O)CN(C)C)cc1OC(=O)CCCCCCC/C=C\CCCCCCCC [Example 14] | – | 0.071 | 67 | −4.1 | – | –
6 | CCCCCCCCCCCCCCCCC(CCCCCCCCCCCCCCCC)C(=O)Oc1ccc(CC(=O)OCCSSCCN(C)C)cc1 [Example 16] | 6.4 | 0.067 | 97 | −2.5 | – | –
7 | CCCCCCCCCCCCCCCCC(CCCCCCCCCCCCCCCC)C(=O)Oc1ccc(CC(=O)NCCSSCCNC(=O)CCCN(C)C)cc1 [Example 20] | 8.8 | – | – | – | – | relative value based on Comparative Example (amount of luminescence in spleen) ([4]; spleen, relative to O-Ph-P4C2 LNP = 1.00): 0.05; amount of luminescence in each organ: heart ([4]; tail vein, mRNA 0.05 mg/kg, 4.5 hr + 15 min after administration, heart): 6.26E+05 photons/sec; amount of luminescence in each organ: kidney ([4]; tail vein, mRNA 0.05 mg/kg, 4.5 hr + 15 min after administration, kidney): 4.34E+05 photons/sec; amount of luminescence in each organ: liver ([4]; tail vein, mRNA 0.05 mg/kg, 4.5 hr + 15 min after administration, liver): 4.95E+05 photons/sec; amount of luminescence in each organ: lung ([4]; tail vein, mRNA 0.05 mg/kg, 4.5 hr + 15 min after administration, lung): 3.68E+05 photons/sec; amount of luminescence in each organ: spleen ([4]; tail vein, mRNA 0.05 mg/kg, 4.5 hr + 15 min after administration, spleen (Table 7)): 5.18E+05 photons/sec
8 | CCCCCCCCCCCCCCCCC(CCCCCCCCCCCCCCCC)C(=O)Oc1ccc(CC(=O)OCCSSCCOC(=O)NCCN2CCOCC2)cc1 [Example 26] | 5.7 | – | – | – | 3.29E+05 | –
9 | CCCCCCCCCCCCCCCCC(CCCCCCCCCCCCCCCC)C(=O)Oc1ccc(CC(=O)OCCSSCCOC(=O)NCCN(CCCC)CCCC)cc1 [Example 27] | 5.7 | – | – | – | 9.60E+05 | –
10 | CCCCCCCCCCCCCCCC(=O)OCC(C)(COC(=O)CCCCCCCCCCCCCCC)C(=O)Oc1ccc(CC(=O)OCCSSCCOC(=O)NCCN(CC)CC)cc1 [Example 32] | 7.2 | – | – | – | 8.77E+07 | gene expression activity compared to Comparative Example [3]: superior gene expression activity
11 | CCCCCCCCCCCCCCCCCC(=O)OCC(C)(COC(=O)CCCCCCCCCCCCCCCCC)C(=O)Oc1ccc(CC(=O)OCCSSCCOC(=O)NCCN(CC)CC)cc1 [Example 33] | 7.1 | – | – | – | 5.38E+06 | –
12 | CCCCCCCCCCCCCCCCC(CCCCCCCCCCCCCCCC)C(=O)Oc1ccc(CC(=O)OCCSSCCOC(=O)/C=C/CN(C)C)cc1 [Example 38] | – | 0.106 | 106 | −3.8 | 1.31E+05 | –
13 | CCCCCCCCCCCCCCCCC(CCCCCCCCCCCCCCCC)C(=O)Oc1ccc(CC(=O)OCCSSCCOC(=O)/C=C/CN(CC)CC)cc1 [Example 39] | – | 0.128 | 107 | −5.3 | 3.95E+04 | –
14 | CCCCCCCCCCCCCCCCC(CCCCCCCCCCCCCCCC)C(=O)Oc1ccc(CC(=O)OCCSSCCOC(=O)/C=C/CN(CC)CCO)cc1 [Example 40] | – | 0.104 | 89 | 0.1 | 2.33E+05 | –
15 | CCCCCCCCCCCCCCCCC(CCCCCCCCCCCCCCCC)C(=O)Oc1ccc(CC(=O)OCCCCSSCCCCOC(=O)CCCN(C)C)cc1 [Example 41] | – | 0.091 | 80 | 4.0 | – | –
16 | CCCCCCCC/C=C\CCCCCCCC(=O)Oc1ccc(CC(=O)OCC(C)(COC(=O)Cc2ccc(OC(=O)CCCCCCC/C=C\CCCCCCCC)cc2)C(=O)OCCSSCCOC(=O)NCCN(CC)CC)cc1 [Example 42] | 7.3 | – | – | – | 3.62E+07 | gene expression activity compared to Comparative Example [3]: superior gene expression activity
